From patent US9365534B2, “Arylated camphenes, processes for their preparation and uses thereof” (Yissum Research Development Company of the Hebrew …, priority 2009, dated 2016)
Like-named read-outs stand apart in the source and are kept apart here.

Legend:
human CB2 receptor [1] = target: T1, human CB2 receptor (Homo sapiens (Human), UniProt P34972); test: Membrane competition binding assay with [3H]-CP 55,940, CHO-CB2 membranes
Text: (§1) The cDNA clones for human HA-tagged CB1 and CB2 receptors were obtained from the Missouri S&T cDNA Resource Center (www.cdna.org) in cloning vector pcDNA3.1+. The vector containing the human CB2 receptor was transfected directly into CHO-KI cells obtained from ATCC. The HA-tagged human CB1 receptor sequence was subcloned into the pef4-V5-HisA vector with Kpn1 and Pme1 restriction enzymes and subsequently transfected into CHO-K1 cells. Cells were clonally isolated by limited dilution and screened by immunocytochemistry for expression of the HA tag.
(§2) Cells were maintained in DMEM/F12 media supplemented with 10% fetal bovine serum (FBS), 100 units/ml penicillin and 100 μg/ml streptomycin and 2 mM L-glutamine. Transfected cell lines were maintained with additional 150 ug/ml zeocin for pEF HA-CB1 transfected cells and 500 ug/ml G-418 for pcDNA HA-CB2 transfected cells (all reagents obtained from Invitrogen).
(§3) Cells were grown to confluence and harvested in ice cold phosphate buffered saline with 5 mM EDTA. Cells were spun at 200×g for 10 min and frozen at −80° C. until required. Cell pellets were thawed with cold 0.32 M sucrose and homogenised with a glass homogeniser. The homogenate was spun at 1000×g for 10 min at 4° C. and the supernatant spun in a Sorvall ultracentrifuge for 30 min at 100,000×g. The pellet was then washed in ice cold water and re-spun twice more. The final pellet was resuspended in 50 mM Tris pH 7.5, 0.5 mM EDTA. Protein concentration was determined using the Dc protein assay kit (BioRad, Hercules, Calif., USA).
(§4) Membranes (5-10 μg) were incubated with radioligand and a range of concentrations of test compounds in binding buffer (50 mM Tris pH 7.4, 5 mM MgCl2, 1 mM EDTA) with 0.5% (w/v) bovine serum albumin (BSA) (ICP Bio, New Zealand), at 30° C. for 60 min. Stock solutions of putative cannabinoid ligands were prepared in dimethyl sulfoxide to a concentration of 10 mM. Six different final concentrations of compounds were used ranging from 50 μM to 0.1 nM. […] Assays were terminated by addition of 2 ml ice cold binding buffer and filtration through GF/C filters (Whatman) pre-soaked in cold binding buffer, followed by two washes in the same buffer.
(§5) Radioactivity was determined by incubation of filters with Irgasafe scintillation fluid (PerkinElmer) and scintillation counting in a Wallac Trilux using Microbeta Trilux software. Data was analysed using the Prism 4.02 programme (GraphPad Software, San Deigo, Calif., USA).
(§6) All data was analyzed using Prism 4.02. For binding data the Ki was determined from IC50 values derived from competition binding data fitted with one site competition non-linear regression analysis by Prism 4.02 using the Kd values reported above.

human CB1 receptor [2] = target: T2, human CB1 receptor (Homo sapiens (Human), UniProt P21554); test: Membrane competition binding assay with [3H]-CP 55,940, CHO-CB1 membranes; conditions: CHO-CB1 cellular membranes, 2.5 nM [3H]-CP 55,940; read-out: Competition Binding Assay CB1 Receptor Ki
T2 sequence (P21554 whole entry): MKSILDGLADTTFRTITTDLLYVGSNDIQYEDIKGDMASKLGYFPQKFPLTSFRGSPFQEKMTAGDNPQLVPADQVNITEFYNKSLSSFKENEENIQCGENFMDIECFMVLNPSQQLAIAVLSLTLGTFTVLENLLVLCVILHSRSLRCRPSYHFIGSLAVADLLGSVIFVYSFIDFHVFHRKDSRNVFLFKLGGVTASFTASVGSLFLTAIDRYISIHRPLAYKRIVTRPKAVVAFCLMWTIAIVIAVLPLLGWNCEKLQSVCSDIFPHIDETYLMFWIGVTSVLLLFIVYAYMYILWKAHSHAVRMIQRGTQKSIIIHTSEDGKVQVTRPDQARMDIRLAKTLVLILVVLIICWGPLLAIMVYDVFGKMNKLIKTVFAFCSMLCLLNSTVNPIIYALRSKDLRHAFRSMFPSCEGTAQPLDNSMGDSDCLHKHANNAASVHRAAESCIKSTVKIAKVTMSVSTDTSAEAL
Text: as §1, §2, §3, §4, §5, §6

human CB1 receptor [3] = target: T2, human CB1 receptor; test: cell-based; conditions: whole cells expressing CB1, 50 μM forskolin; read-out: cAMP Assay CB1 Receptor IC50
Text: as §1, §2
(§7) Cells were seeded at a density of 10,000 cells per well in poly-L-lysine treated 96-well culture plates (BD Biosciences). The following day wells were incubated with 40 μl DMEM/F12 containing 0.5% (w/v) BSA and 0.5 mM 3-isobutyl-1-methylxanthine (Sigma-Aldrich) for 30 minutes prior to 15 min stimulation with 50 μM forskolin (Tocris Cookson) and varying concentrations of indicated compounds at 37° C., 5% CO2. Assays were stopped by removal of media and addition of 100% ice cold ethanol. Plates were then frozen for a minimum of two hours before complete evaporation of ethanol. The well contents were then reconstituted in 50 μl cAMP assay buffer (20 mM HEPES pH 7.5 and 5 mM EDTA). Half of the reconstituted sample was transferred to round bottom 96-well plates (Greiner Bio-One GmbH) with 50 μl 0.01% w/v PKA (cAMP dependent protein kinase (Sigma-Aldrich) in 1 mM Na citrate pH 6.5 with 2 mM dithiothreitol) and 25 μl [^3H]-cAMP (at 22 nM in cAMP assay buffer) (GE Healthcare, Life Sciences). This was allowed to equilibrate for 3-18 hours. Following this a charcoal slurry (5% (w/v) activated charcoal and 0.2% (w/v) BSA in cAMP assay buffer) was added to the samples and the plates centrifuged at 3000×g, 4° C. for 5 min. Radioactive counts within the supernatant were then determined as described for competition binding assays.
(§8) pIC50 values were determined from cAMP assays by fitting a sigmoidal concentration response curve using Prism 4.02.

human CB2 receptor [4] = target: T1, human CB2 receptor; test: cell-based
Text: as §1, §2, §7, §8

human CB2 receptor [5] = target: T1, human CB2 receptor; test: Membrane [35S]GTPγS binding assay; assay type: biochemical; conditions: for Emax: read-out: [35S]GTPγS Emax
Protocol: Human CB2 expressing CHO-K1 membranes (5 μg per incubation mixture) were diluted in 50 mM Tris-HCl (pH 7.5) and 0.5 mM EDTA and added to HU compounds in a pre-mixed incubation cocktail. Final incubation concentrations were 55 mM Tris-HCl (pH 7.4), 1 mM EDTA, 100 mM NaCl, 5 mM MgCl2, 0.5% BSA, 50 μM GDP, 0.2 nM [^35S]GTPγS (PerkinElmer) with varied HU compound concentration and 5 μg membrane. Incubations were continued for 60 minutes at 30° C. in a shaking water bath. Assays were terminated by addition of 2 ml ice cold wash buffer (50 mM Tris-HCl, pH 7.5 and 5 mM MgCl2) and filtration through pre-soaked GF/C filters (Whatman), followed by two further washes. adioactivity was determined as described for competition binding assays.
Data was analyzed using the Prism 4.02 programme (GraphPad Software, San Deigo, Calif., USA). IC50 and EC50 values, as determined from sigmoidal curves, were generated from drug concentrations plotted in log scale. […] It is possible to display data as an average, plus or minus the standard error of the mean in log form, however, this is not easily interpreted or compared to other values. It was therefore elected to calculate the 95% confidence interval for the mean value in log form and then convert the lower limit, mean and upper limit into the molar (linear) scale. […] Two-tailed t-tests for statistical analysis between enantiomeric pairs of compounds were performed for CB2 Ki values. The Pearson value, an indication of linearity, was determined for Ki and IC50 or EC50 results obtained for CB2 receptors in binding, cAMP or GTPγS experiments, respectively.

closed head injury (CHI) = test: Closed head injury (CHI) model, neurological severity score, Sabra mice; assay type: in vivo; conditions: SR144528 1 mg/kg i.p. 1 h after CHI, 24 h to 14 day, vs vehicle control
Protocol: The study was conducted according to the guidelines of the Institutional Animal Care Committee of the Hebrew University. Male Sabra mice weighing 35 to 50 g were used in all experiments. Animals were kept under controlled light conditions with a 12 h/12 h light/dark cycle. Experimental closed head injury (CHI) was induced using a modified weight drop device developed in our laboratory as described previously (Chen et al., 1996). At 1 h after CHI, the functional status of the mice was evaluated according to a set of 10 neurobehavioral tasks, namely the neurological severity score (NSS). This score is based on the ability of the mice to perform 10 different tasks (Beni-Adani et al., 2001) that evaluate their motor ability, balance, and alertness. One point is given for failing to perform a task. […] A score of 10 reflects maximal neurologic impairment, and a decrease of NSS during the recovery period indicates partial recovery of function.
Data was analyzed using the Prism 4.02 programme (GraphPad Software, San Deigo, Calif., USA). The data are expressed as mean±SEM and statistical significance was assessed with one way analysis of variance (ANOVA) followed by a Dunnett's post-hoc analysis for TNF-α levels. Nonparametric NSS values were compared between the two groups at each time point.
In this study four groups of mice were subjected to CHI (n=10/group and control n=9), after which the following agents were administered: • Group 1 (Control): Vehicle only (ethanol:cremophor:saline at ratio of 1:1:18), 1 h after CHI. • Group 2: HU-910, 0.1 mg/kg, dissolved in vehicle (1:1:18 ethanol:cremophor:saline), i.p. 1 h after CHI. • Group 3: HU-910, 1.0 mg/kg, dissolved in vehicle (1:1:18 ethanol:cremophor:saline), i.p. 1 h after CHI. • Group 4: HU-910, 10.0 mg/kg, dissolved in vehicle (1:1:18 ethanol:cremophor:saline), i.p. 1 h after CHI.
In this study four groups of mice were subjected to CHI (n=9/group), after which the following agents were administered: • Group 1 (Control): Vehicle only (ethanol:cremophor:saline at ratio of 1:1:18), 1 h after CHI. • Group 2: HU-910, 10 mg/kg, dissolved in vehicle (1:1:18 ethanol:cremophor:saline), i.p. 1 h after CHI. • Group 3: Specific CB2 antagonist SR144528 (N-[(1S)-endo-1,3,3-trimethylbicyclo[2.2.1]heptan-2-yl]-5-(4-chloro-3-methylphenyl)-1-(4-methylbenzyl)pyrazole-3 carboxamide), (see M. Rinaldi-Carmona, et al. J. Pharmacol. Exp. Ther. 284 (1998) 644-650), 1 mg/kg, i.p. 1 h after CHI. • Group 4: Specific CB2 antagonist (SR144528, N-[(1S)-endo-1,3,3-trimethylbicyclo[2.2.1]heptan-2-yl]-5-(4-chloro-3-methylphenyl)-1-(4-methylbenzy)pyrazole-3 carboxamide), 1 mg/kg, i.p. 1 h after CHI and HU-910 10 mg/kg administered 10 min after administration of antagonist.
In this study four groups of mice were subjected to CHI (n=7-8/group), after which the following agents were administered: • Group 1 (Control): Vehicle only (Dimethyl Sulfoxide (DMSO): Tween 80: Saline at ratio of 1:1:18), i.p. 1 h after CHI. • Group 2: HU-910, 10 mg/kg, dissolved in Vehicle, i.p. 1 h after CHI. • Group 3: Specific CB2 antagonist/inverse agonist AM630 (6-Iodo-2-methyl-1-[2-(4-morpholinyl)ethyl]-1H-indol-3-yl](4-methoxyphenyl)methanone) (Ross et al. 1999)), dissolved in Vehicle, 1 mg/kg, i.p. 1 h after CHI and HU-910, dissolved in Vehicle, 10 mg/kg administered 10 min after administration of antagonist/inverse agonist. • Group 4: Specific CB2 antagonist/inverse agonist AM630 (6-Iodo-2-methyl-1-[2-(4-morpholinyl)ethyl]-1H-indol-3-yl](4-methoxyphenyl)methanone), dissolved in Vehicle, 1 mg/kg, i.p. 1 h after CHI

[6] = CHO-CB2 cellular membranes, 2.5 nM [3H]-CP 55,940
[7] = CHO; read-out: cAMP Assay CB2 Receptor Emax
[8] = whole cells expressing CB2, 50 μM forskolin; read-out: cAMP Assay CB2 Receptor IC50
[9] = human CB2 CHO-K1 membranes, mean (95% confidence interval), n = 5
[10] = CHO, read-out: cAMP Assay CB2 Receptor Emax
[11] = read-out: cAMP Assay CB2 Receptor IC50

Molecule	Ki (human CB2 receptor [1]; [6]) [µM]	Ki (human CB1 receptor [2]) [µM]	IC50 (human CB1 receptor [3]) [µM]	Emax (human CB2 receptor [4]; [7]) [%]	IC50 (human CB2 receptor [4]; [8]) [µM]	EC50 (human CB2 receptor [5]; [9]) [µM]	Emax (human CB2 receptor [5]) [%]	Ki (human CB2 receptor [1]) [µM]	Emax (human CB2 receptor [4]; [10]) [%]	IC50 (human CB2 receptor [4]; [11]) [µM]	EC50 (human CB2 receptor [5]) [µM]	extent of recovery ΔNSS, antagonist alone (closed head injury (CHI))
CCCCCCC(C)(C)c1cc(OC)c(C2C(=O)[C@]3(C)CC[C@H]2C3(C)C)c(OC)c1 (stereo partly drawn) [HU-926, (1R,4R)-3-(2,6-dimethoxy-4-(2-methyloctan-2-yl)phenyl)-1,7,7-trimethylbicyclo[2.2.1]heptan-2-one]	0.106	> 50	> 50	100 ± 13	0.321	0.185	51 ± 6	–	–	–	–	–
CCCCCCC(C)(C)c1cc(OC)c(C2C(O)[C@]3(C)CC[C@H]2C3(C)C)c(OC)c1 (stereo partly drawn) [HU-928, (1R,4R)-3-(2,6-dimethoxy-4-(2-methyloctan-2-yl)phenyl)-1,7,7-trimethylbicyclo[2.2.1]heptan-2-ol]	–	> 50	> 50	–	–	–	95 ± 5	0.23	101 ± 11	0.925	0.577	–
CCCCCCC(C)(C)c1cc(OC)c(C2=C[C@@H]3CC[C@@]2(C(=O)OC)C3(C)C)c(OC)c1 [HU-911, (1R,4S)-methyl-2-(2,6-dimethoxy-4-(2-methyloctan-2-yl)phenyl)-7,7-dimethylbicyclo[2.2.1]hept-2-ene-1-carboxylate]	0.0846	> 50	> 50	86 ± 9	0.385	0.126	94 ± 4	–	–	–	–	–
CCCCCCC(C)(C)c1cc(OC)c(C2=C[C@@H]3CC[C@@]2(C(=O)O)C3(C)C)c(OC)c1 [HU-913, (1R,4S)-2-(2,6-dimethoxy-4-(2-methyloctan-2-yl)phenyl)-7,7-dimethylbicyclo[2.2.1]hept-2-ene-1-carboxylic acid]	–	> 50	> 50	–	–	–	98 ± 3	0.0815	101 ± 11	0.33	0.344	–
CCCCCCC(C)(C)c1cc(OC)c(C2=C[C@@H]3CC[C@@]2(CO)C3(C)C)c(OC)c1 [HU-909, (1R,4S)-(2-(2,6-dimethoxy-4-(2-methyloctan-2-yl)phenyl)-7,7-dimethylbicyclo[2.2.1]hept-2-en-1-yl)methanol]	–	11.7	> 50	–	–	–	76 ± 7	0.0568	95 ± 6	0.425	0.136	–
N-[(1S)-endo-1,3,3-trimethylbicyclo[2.2.1]heptan-2-yl]-5-(4-chloro-3-methylphenyl)-1-(4-methylbenzyl)pyrazole-3 carboxamide [SR144528, reference compound]	–	–	–	–	–	–	–	–	–	–	–	recovery was significantly reduced
